{"source": "paper PMC12711892", "about": "“A genome-wide CRISPR screen identifies GRA38 as a key regulator of lipid homeostasis during Toxoplasma gondii adaptation to lipid-rich conditions” (Nature Communications, 2025)", "target": "T1, GRA38-6xHis (Toxoplasma gondii, UniProt A0A7J6JXD8)", "T1 construct": "gene TGRH88_051660; signal peptide (first 23 residues) removed; C-terminal 6xHis in pET-29b(+), codon-optimised, E. coli BL21; tag kept", "T1 sequence (A0A7J6JXD8 entry or part of it)": "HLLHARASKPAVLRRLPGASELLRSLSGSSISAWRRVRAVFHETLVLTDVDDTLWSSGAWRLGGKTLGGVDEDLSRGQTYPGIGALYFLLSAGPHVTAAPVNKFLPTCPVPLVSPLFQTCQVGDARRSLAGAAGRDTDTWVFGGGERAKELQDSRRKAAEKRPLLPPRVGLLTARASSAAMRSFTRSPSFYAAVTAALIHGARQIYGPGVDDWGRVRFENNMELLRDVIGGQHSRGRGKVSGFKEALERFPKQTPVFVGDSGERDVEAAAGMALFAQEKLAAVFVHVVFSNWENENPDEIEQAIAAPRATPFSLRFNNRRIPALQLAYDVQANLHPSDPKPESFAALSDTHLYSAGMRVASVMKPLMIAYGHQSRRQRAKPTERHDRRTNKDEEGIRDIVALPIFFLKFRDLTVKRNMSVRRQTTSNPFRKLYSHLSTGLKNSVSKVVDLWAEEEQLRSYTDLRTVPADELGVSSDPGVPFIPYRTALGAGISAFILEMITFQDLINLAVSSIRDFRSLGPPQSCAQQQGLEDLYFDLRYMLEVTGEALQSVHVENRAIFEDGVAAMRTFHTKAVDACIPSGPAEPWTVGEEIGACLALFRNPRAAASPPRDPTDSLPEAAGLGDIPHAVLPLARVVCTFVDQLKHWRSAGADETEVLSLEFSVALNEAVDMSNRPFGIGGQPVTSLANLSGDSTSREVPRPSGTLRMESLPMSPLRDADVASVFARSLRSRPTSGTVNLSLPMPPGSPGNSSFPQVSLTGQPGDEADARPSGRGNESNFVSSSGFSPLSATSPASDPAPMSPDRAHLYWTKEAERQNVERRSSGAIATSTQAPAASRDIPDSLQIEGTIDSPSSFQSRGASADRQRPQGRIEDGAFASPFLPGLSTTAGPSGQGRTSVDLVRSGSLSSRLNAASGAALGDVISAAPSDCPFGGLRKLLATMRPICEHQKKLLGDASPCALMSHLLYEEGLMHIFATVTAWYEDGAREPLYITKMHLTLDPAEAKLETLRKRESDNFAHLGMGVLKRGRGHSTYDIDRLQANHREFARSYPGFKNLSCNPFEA", "experiment": "malachite green phosphate release assay (PAP activity)", "type": "biochemical", "conditions": "read-out: % inhibition at 1 mM"}
{"smiles": "O=CC(=O)c1ccccc1", "note": "[phenylglyoxal]", "values": [{"measurement": "inhibition at 1000 µM", "result": 45, "unit": "%"}]}
